The values that follow come from publication PMC12040169 (PLOS Biology, 2025).

The structures appear in SMILES notation.

The data set in a line: in vitro. Particulars: human, hela cells, % viability.

The term viability denotes a read-out of living cells in per cent, often relative to untreated cells. For `CCNC(=O)Nc1c[nH]nc1C1CCCN(c2cccc(F)c2C#N)C1` (centres unmarked) [CBK306406], the viability at 28.5 h, 10 µM turned out to be 86.5%. Consider `COCCNC(=O)Nc1ccc2nc(-c3ccccn3)c(-c3ccccn3)nc2c1` [CBK265151], for which the viability at 28.5 h, 10 µM is 89.9%. For the compound `CN(C)c1ccc(NC(=O)CC2S/C(=N/c3ccccc3)N(c3ccccc3)C2=O)cc1` (centres unmarked) [CBK265644], the viability at 28.5 h, 10 µM stood at 92.7%. As for `Nc1ncc(-c2ccoc2)nc1-c1ccc(C(=O)N2CCOCC2)cc1` [CBK064076], the figure is 101%; as for `C=C(C)CN1CCN(C(=O)CSc2nccc3ccccc23)CC1` [CBK282712], 88.4%; as for `Cc1nc(NS(=O)(=O)c2cc(F)c(Br)cc2F)sc1C(=O)O` [CBK045556], 96.5%. Take `O=[N+]([O-])c1ccc(N2CCN(S(=O)(=O)N3CCCC3)CC2)c(Cl)c1` [CBK264772]: the viability at 28.5 h, 10 µM was 102%. On to `Cc1ccc(OCC(=O)NNC(=O)C2COc3ccccc3O2)cc1` (centres unmarked) [CBK263511], for which the viability at 28.5 h, 10 µM worked out at 95.4%. The figure for `CCN(CC)CCOC(=O)c1oc2c3c(ccc2c1C)OCCO3` [CBK008676C] is 115%. As for `COc1ccc(OC)c(NC(=O)CSc2nnc(-c3ccco3)o2)c1` [CBK267429], the figure is 98.3%; as for `Cc1ccc(S(=O)(=O)NCC(=O)Nc2ccc(C)cc2C(=O)c2ccccc2)cc1` [CBK265199], 85.8%. The figure for `Cc1cc(CN(C)Cc2cnn(-c3ccc(F)cc3)c2)n[nH]1` [CBK281706] is 97.1%; for `COCCn1c(CO)nnc1[C@H]1C[C@@H](NC(=O)c2ncc(F)cc2F)C1` [CBK307458] it is 106%. As to `COc1cc(C2N(Cc3ccccc3)CCN2Cc2ccccc2)ccc1OC(C)=O` [CBK261349], the viability at 28.5 h, 10 µM came out at 89.2%.

With `Cc1ccc(SCCNS(=O)(=O)c2ccc(C)cc2)cc1` [CBK263564], the viability at 28.5 h, 10 µM was 108%. In the case of `CCN(CC)CCCN1C(=O)CSC1c1ccc2c(c1)OCO2` (centres unmarked) [CBK263482C], the viability at 28.5 h, 10 µM was 102%.

Turning to `O=C(N/N=C/c1ccccn1)c1cc(-c2ccc3ccccc3c2)[nH]n1` [CBK262886], the viability at 28.5 h, 10 µM came to 93.9%. As for `Cc1nc(O)cc(C2CCCN(C(=O)c3csc4c3CCCC4)C2)n1` (centres unmarked) [CBK306696], the figure is 87.3%; as for `O=C(CSc1ccc(Cl)cc1)OCC(=O)c1ccccc1` [CBK264306], 106%; as for `CN1CCN(C(=O)CN(c2ccccc2)S(=O)(=O)N(C)C)CC1` [CBK268079], 86.6%. As for `Cc1nn(CCC#N)c(C)c1[C@@H]1C=C[C@@H](NC(=O)NCc2ccccc2)C1` [CBK289174], the figure is 96.8%; as for `CCC(NS(=O)(=O)c1ccc(OC)cc1)C(=O)O` (centres unmarked) [CBK264509], 100%. For the compound `NC(=O)c1cc(C(=O)c2ccccc2F)c[nH]1` [CBK017284], the viability at 28.5 h, 10 µM was determined as 112%. The figure for `N#CCc1ccc(OC(=O)c2cccnc2)cc1` [CBK090304] is 105%. For the compound `O=C(Cc1c[nH]c2ccccc12)N1CCC2(CCCN(Cc3c(F)cccc3F)C2)C1` (centres unmarked) [CBK132031], the viability at 28.5 h, 10 µM is 115%.

Consider `CCC(=O)Nc1ccc(-c2csc(N(C)C)n2)cc1` [CBK304294C], for which the viability at 28.5 h, 10 µM came out at 103%. The figure for `NCCNC(=O)c1cc(-c2ccc(Cl)cc2)[nH]n1` [CBK160975] is 110%. The figure for `Cc1ccc(NC(=O)c2cncnc2)c(C)n1` [CBK200380] is 81.1%; for `OCCN(Cc1cccnc1)Cc1cccn1-c1ccc(F)cc1F` [CBK283042] it is 90.4%. The figure for `CCn1c(C(O)c2ccc(OC)c(OC)c2)nc2ccccc21` (centres unmarked) [CBK262974] is 90.1%; for `CCOC(=O)c1[nH]c2ccccc2c1NC(=O)c1ccc(OC(F)(F)F)cc1` [CBK160157] it is 87.8%. As to `CC(C)c1ccc(S(=O)(=O)n2c(=O)n(CCc3c[nH]c4ccccc34)c3ccccc32)cc1` [CBK106518], the viability at 28.5 h, 10 µM amounted to 87.4%. As for `CCC(=O)N1CCCc2cc(C(O)CN3CCC(C)CC3)ccc21` (centres unmarked) [CBK282144], the figure is 105%. The figure for `CN1C(=O)/C(=C2\SC(=S)N(C(CCC(=O)O)C(=O)O)C2=O)c2ccccc21` (centres unmarked) [CBK261010] is 92.3%. The figure for `COCCc1noc(CC2CCN(c3nc(C#N)c(Cl)s3)CC2)n1` [CBK304205] is 102%; for `O=C1N[C@@H]2CCN(CC(=O)N3CCCC3)C[C@@H]2CCCCCOc2ccccc21` [CBK292141] it is 107%; for `CC(C)(N)CC(=O)N1CCC(Cn2cncn2)(C2CCCCC2)CC1` [CBK136822] it is 89.4%.

As to `CCCC(=O)Nc1ccc(OCc2nnc(C)o2)c(C(C)=O)c1` [CBK305943], the viability at 28.5 h, 10 µM worked out at 92.9%. On to `Cc1cc(O)ccc1C(CC(=O)O)c1ccccc1` (centres unmarked) [CBK013350], for which the viability at 28.5 h, 10 µM was determined as 100%. In the case of `CS(=O)(=O)Nc1nnc(C(F)(F)F)s1` [CBK038168], the viability at 28.5 h, 10 µM was 97.6%. `Oc1ccc(/C=N/Nc2nnn[nH]2)c(O)c1` [CBK260972]: the viability at 28.5 h, 10 µM worked out at 99%. The figure for `c1cncc(COc2cncc(OC3CCN(CCN4CCOCC4)C3)n2)c1` (centres unmarked) [CBK084463] is 99.7%. The figure for `Cc1nc2ccc(C(=O)OCc3ccc(S(=O)(=O)Cc4ccccc4)cc3)cc2nc1C` [CBK269661] is 97.6%; for `COc1cc([C@@]23CC[C@@H](NC(=O)Nc4cc(F)ccc4F)C[C@@H]2N(C)CC3)ccc1OC(F)F` [CBK073834] it is 106%; for `O=C1NNC=Cc2c1cnc1nc(C(F)(F)F)nn21` [CBK288156] it is 93.3%. The figure for `O=C(CN1CCCC1Cn1cccn1)N1CCCc2ccccc21` (centres unmarked) [CBK281971] is 89%.

On to `COc1ccc2[nH]c3c(=O)n(C)cnc3c2c1` [CBK025870], for which the viability at 28.5 h, 10 µM came out at 85.8%. The figure for `O=C(O)Cn1nc(-c2ccccc2)c2ccccc2c1=O` [CBK287249] is 88%. For the compound `Cc1cccc2c3c([nH]c12)C1(CCN(CCCC#N)CC1)NCC3` [CBK039818], the viability at 28.5 h, 10 µM was 90.8%. Consider `CC(NC1CCN(Cc2ccccc2)CC1)C12CC3CC(CC(c4ccc(Cl)cc4)(C3)C1)C2` (centres unmarked) [CBK262877], for which the viability at 28.5 h, 10 µM was found to be 90.1%.

For `Cc1cc(=O)oc2cc(OC(=O)C(Cc3ccccc3)N3C(=O)c4ccccc4C3=O)ccc12` (centres unmarked) [CBK033943], the viability at 28.5 h, 10 µM came to 91.1%.

For `O=C(O)CCC(=O)Nc1ccc(OC(F)F)cc1` [CBK264222], the viability at 28.5 h, 10 µM was determined as 99.8%. As for `CCN(CC)CCn1c(=N)n(CC(=O)c2cccs2)c2ccccc21` [CBK278240B], the figure is 85.1%; as for `CCS(=O)(=O)N1CCC(NC(=O)NC(C)c2ccccc2Cl)CC1` (centres unmarked) [CBK242304], 95.3%; as for `CC(=O)N1CCc2nc(C)nc(N(C)Cc3cnn(C(C)C)c3)c2CC1` [CBK306968], 83.1%. For the compound `Cc1cc(C(F)(F)F)nc2c(OCCOc3nccnc3N3CCNCC3)cnn12` [CBK024195C], the viability at 28.5 h, 10 µM came to 96.1%.

Take `CCCn1ncc(C(=O)N2CCC(Oc3ccccc3F)CC2)c1C` [CBK282169]: the viability at 28.5 h, 10 µM was determined as 115%. As to `Nc1ccc2c(-c3ccc(OC(F)(F)F)cc3)ccnc2n1` [CBK067649], the viability at 28.5 h, 10 µM amounted to 89.1%. As to `CCNC(=O)N[C@H]1[C@H](O)[C@@H](N(CC)CC)[C@@H]2OC[C@H]1O2` [CBK288816], the viability at 28.5 h, 10 µM came to 113%. As for `Cc1cc(C)n(C2CCN(Cc3nc4ccccc4n3C)CC2)n1` [CBK281621], the figure is 84.3%; as for `Cc1ccc2c(c1)C(NC(=O)N(C)C1CCS(=O)(=O)CC1)CC(C)(C)O2` (centres unmarked) [CBK307654], 108%. The figure for `CCn1c2cc(C)sc2c2cnn(CCN3CCCC3)c(=O)c21` [CBK284151] is 99.7%; for `CN(C)S(=O)(=O)c1ccc(C(=O)Nc2ccc3ncn(C)c(=O)c3c2)cc1` [CBK268450] it is 103%. As for `O=C(Nc1nnc(C2CCCCC2)s1)c1ccccc1I` [CBK057918], the figure is 114%; as for `COc1cccc(C(=O)NCCC(=O)N2CCCC(c3ncc[nH]3)C2)c1` (centres unmarked) [CBK306864], 82.5%. Regarding `FC(F)(F)c1cccc(OCCN2CCOCC2)n1` [CBK113289], the viability at 28.5 h, 10 µM is 105%. The figure for `COc1ccc2c(-c3cc(N)sn3)c(C)oc2c1` [CBK022260] is 83.8%. With `CC(Nc1n[nH]c(=O)[nH]c1=O)C(=O)N/N=C/c1ccccc1O` (centres unmarked) [CBK263526], the viability at 28.5 h, 10 µM is 91.7%. `CC[C@@H]1COCCN1C(=O)c1sc2ccccc2c1Cl` [CBK103641]: the viability at 28.5 h, 10 µM was 90.3%. As for `CC(=O)C1=C(O)C(=O)N(CCCO)C1c1cccc([N+](=O)[O-])c1` (centres unmarked) [CBK263753], the viability at 28.5 h, 10 µM was 92.6%. As for `O=C(Nc1ccc2[nH]ccc2c1)c1ccccc1Nc1cccc(C(F)(F)F)c1` [CBK149583], the figure is 105%; as for `O=C(O)C1C2CCC(C2)C1C(=O)NCCCCc1ccccc1` (centres unmarked) [CBK286967], 91.1%; as for `O=C(Nc1ccon1)c1nn(-c2ncccn2)c2ccccc12` [CBK048513], 95.3%.

As for `CCC(=O)Nc1ccccc1C(=O)C(=O)O` [CBK219398], the viability at 28.5 h, 10 µM was 120%. On to `COc1ccc(C(C)C)cc1-c1cncc(N[C@H](C)c2ccccc2)n1` [CBK065535], for which the viability at 28.5 h, 10 µM was 105%.

On to `COc1cccc2cc(-c3cncn3CCCC(C)(C)CO)oc12` [CBK281817], for which the viability at 28.5 h, 10 µM turned out to be 112%. The figure for `Cc1scc(C(=O)NN2CCN(C)CC2)c1-c1ccccc1` [CBK268115] is 93%. Turning to `NNC(=O)Cn1c(-c2ccccn2)nc2ccccc21` [CBK263489], the viability at 28.5 h, 10 µM was found to be 108%.

Consider `O=C(O)CCc1ccc(-c2cn3ccnc3c(NCc3ccncc3)n2)cc1` [CBK038022], for which the viability at 28.5 h, 10 µM was determined as 90.6%. With `O=C(O)c1cccc(-c2ccc(/C=N/Nc3ccc([N+](=O)[O-])cn3)o2)c1` [CBK263196], the viability at 28.5 h, 10 µM came out at 89.9%.
